# Experimental data reported in ChEMBL document CHEMBL1764969, “Design, synthesis and structure-activity relationship (SAR) studies of 2,4-disubstituted pyrimidine derivatives: dual activity as cholinesterase and Aβ-aggregation inhibitors” (Bioorg Med Chem, 2011).
# Molecular target: Acetylcholinesterase (Homo sapiens, UniProt P22303)
# Sequence (P22303 whole entry): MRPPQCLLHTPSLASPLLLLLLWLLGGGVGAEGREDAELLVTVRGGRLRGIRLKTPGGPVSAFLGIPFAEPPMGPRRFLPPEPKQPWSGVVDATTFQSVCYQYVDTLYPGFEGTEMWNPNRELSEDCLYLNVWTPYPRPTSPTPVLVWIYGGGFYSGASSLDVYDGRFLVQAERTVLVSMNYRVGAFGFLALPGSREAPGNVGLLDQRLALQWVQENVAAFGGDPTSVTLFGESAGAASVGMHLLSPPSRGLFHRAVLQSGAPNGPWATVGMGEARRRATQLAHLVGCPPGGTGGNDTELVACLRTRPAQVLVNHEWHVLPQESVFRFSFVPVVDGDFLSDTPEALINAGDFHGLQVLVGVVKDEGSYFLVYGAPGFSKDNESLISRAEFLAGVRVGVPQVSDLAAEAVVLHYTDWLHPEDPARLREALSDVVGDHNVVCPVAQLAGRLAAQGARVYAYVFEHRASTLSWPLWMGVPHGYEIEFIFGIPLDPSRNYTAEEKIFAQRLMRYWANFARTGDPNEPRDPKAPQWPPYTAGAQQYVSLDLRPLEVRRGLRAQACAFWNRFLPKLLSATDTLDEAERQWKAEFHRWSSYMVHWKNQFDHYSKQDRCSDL
# Description: Inhibition of human AChE incubated with compounf for 5 mins before addition of substrate acetylthiocholine iodide by Ellman's method
row,Compound,IC50 [µM]
1,CC1CCN(c2nccc(NCc3ccccc3)n2)CC1,18.4
2,c1ccc(CCNc2ccnc(N3CCCC3)n2)cc1,9.8
3,c1ccc(CCNc2ccnc(N3CCSCC3)n2)cc1,26.4
4,CN1CCN(c2nccc(NCCc3ccccc3)n2)CC1,20.4
5,CC1CCN(c2nccc(NCCc3ccccc3)n2)CC1,8.8
6,c1ccc2c(CNc3ccnc(N4CCCC4)n3)cccc2c1,5.5
7,c1ccc2c(CNc3ccnc(N4CCOCC4)n3)cccc2c1,14.7
8,c1ccc2c(CNc3ccnc(N4CCSCC4)n3)cccc2c1,12.8
9,CN1CCN(c2nccc(NCc3cccc4ccccc34)n2)CC1,17.5
10,CN1CCN(c2nccc(NCc3ccccc3)n2)CC1,24.9
11,c1ccc(CCNc2ccnc(N3CCOCC3)n2)cc1,19.7
12,c1ccc(CNc2ccnc(N3CCCC3)n2)cc1,8.7
13,c1ccc(CNc2ccnc(N3CCOCC3)n2)cc1,14
14,c1ccc(CNc2ccnc(N3CCSCC3)n2)cc1,23.2
15,CC(=O)N1CCN(c2nccc(NCc3ccccc3)n2)CC1,16.6
16,CC(C)(C)OC(=O)N1CCN(c2nccc(NCc3ccccc3)n2)CC1,18.8

row,Compound,IC50 [µM]
1,c1ccc(CNc2ccnc(N3CCN(C4CCCCC4)CC3)n2)cc1,22.9
2,CC(C)N1CCN(c2nccc(NCc3ccccc3)n2)CC1,25
3,CC(C)C1CCN(c2nccc(NCc3ccccc3)n2)CC1,14.2
4,CCCN1CCN(c2nccc(NCc3ccccc3)n2)CC1,15.3
5,OCCN1CCN(c2nccc(NCc3ccccc3)n2)CC1,26.4
6,COCCN1CCN(c2nccc(NCc3ccccc3)n2)CC1,26.7
7,Clc1ccc(CN2CCN(c3nccc(NCc4ccccc4)n3)CC2)cc1,20.2
8,Brc1ccc(CN2CCN(c3nccc(NCc4ccccc4)n3)CC2)cc1,25.5
9,Fc1ccc(CN2CCN(c3nccc(NCc4ccccc4)n3)CC2)cc1,21.6
10,FC(F)(F)c1ccc(CN2CCN(c3nccc(NCc4ccccc4)n3)CC2)cc1,28.8
11,c1ccc(CNc2ccnc(NC3CCN(Cc4ccccc4)CC3)n2)cc1,12.4
12,[O-][S+]1CCN(c2nccc(NCc3ccccc3)n2)CC1,12.6
13,O=S1(=O)CCN(c2nccc(NCc3ccccc3)n2)CC1,24.2
14,c1ccc(CNc2ccnc(N3CCNCC3)n2)cc1,15.5
15,CC(=O)N1CCN(c2nccc(NCCc3ccccc3)n2)CC1,19.9
16,CC1CCN(c2nccc(NCc3cccc4ccccc34)n2)CC1,25.8

# Molecular target: Butyrylcholinesterase (Equus caballus, UniProt Q9N1N9)
# Sequence (Q9N1N9 whole entry): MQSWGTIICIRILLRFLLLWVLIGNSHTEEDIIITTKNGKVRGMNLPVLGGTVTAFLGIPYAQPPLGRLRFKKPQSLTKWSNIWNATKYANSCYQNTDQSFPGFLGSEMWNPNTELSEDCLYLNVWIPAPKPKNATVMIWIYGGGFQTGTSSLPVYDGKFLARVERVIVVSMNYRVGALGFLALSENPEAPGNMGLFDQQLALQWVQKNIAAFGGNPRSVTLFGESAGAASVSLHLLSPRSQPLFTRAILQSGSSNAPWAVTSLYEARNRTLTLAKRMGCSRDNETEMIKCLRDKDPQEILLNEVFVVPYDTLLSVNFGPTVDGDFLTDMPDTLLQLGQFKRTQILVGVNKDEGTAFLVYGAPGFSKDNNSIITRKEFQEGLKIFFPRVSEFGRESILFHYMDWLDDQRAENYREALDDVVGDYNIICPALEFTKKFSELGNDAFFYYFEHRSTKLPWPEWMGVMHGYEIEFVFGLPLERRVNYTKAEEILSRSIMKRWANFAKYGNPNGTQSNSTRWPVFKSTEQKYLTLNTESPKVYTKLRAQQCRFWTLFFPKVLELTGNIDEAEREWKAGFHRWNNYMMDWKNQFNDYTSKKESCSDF
# Description: Inhibition of equine BChE incubated with compounf for 5 mins before addition of substrate S-butyrylthiocholine iodide by Ellman's method
row,Compound,IC50 [µM]
1,CC1CCN(c2nccc(NCc3ccccc3)n2)CC1,3.4
2,c1ccc(CCNc2ccnc(N3CCSCC3)n2)cc1,> 100
3,CN1CCN(c2nccc(NCCc3ccccc3)n2)CC1,> 100
4,CC1CCN(c2nccc(NCCc3ccccc3)n2)CC1,17.7
5,c1ccc2c(CNc3ccnc(N4CCCC4)n3)cccc2c1,8.9
6,c1ccc2c(CNc3ccnc(N4CCOCC4)n3)cccc2c1,28
7,CN1CCN(c2nccc(NCc3cccc4ccccc34)n2)CC1,2.6
8,CN1CCN(c2nccc(NCc3ccccc3)n2)CC1,> 100
9,c1ccc(CCNc2ccnc(N3CCOCC3)n2)cc1,> 100
10,c1ccc(CNc2ccnc(N3CCCC3)n2)cc1,26.4
11,c1ccc(CNc2ccnc(N3CCSCC3)n2)cc1,6.1
12,CC(=O)N1CCN(c2nccc(NCc3ccccc3)n2)CC1,> 100
13,CC(C)(C)OC(=O)N1CCN(c2nccc(NCc3ccccc3)n2)CC1,> 100
14,c1ccc(CNc2ccnc(N3CCN(C4CCCCC4)CC3)n2)cc1,7.6
15,CC(C)N1CCN(c2nccc(NCc3ccccc3)n2)CC1,3.4
16,CC(C)C1CCN(c2nccc(NCc3ccccc3)n2)CC1,6.5
17,CCCN1CCN(c2nccc(NCc3ccccc3)n2)CC1,59.9
18,OCCN1CCN(c2nccc(NCc3ccccc3)n2)CC1,> 100
19,COCCN1CCN(c2nccc(NCc3ccccc3)n2)CC1,> 100
20,Clc1ccc(CN2CCN(c3nccc(NCc4ccccc4)n3)CC2)cc1,10.7
21,Brc1ccc(CN2CCN(c3nccc(NCc4ccccc4)n3)CC2)cc1,14.3
22,Fc1ccc(CN2CCN(c3nccc(NCc4ccccc4)n3)CC2)cc1,7.3
23,FC(F)(F)c1ccc(CN2CCN(c3nccc(NCc4ccccc4)n3)CC2)cc1,> 100
24,c1ccc(CNc2ccnc(NC3CCN(Cc4ccccc4)CC3)n2)cc1,8.2
25,[O-][S+]1CCN(c2nccc(NCc3ccccc3)n2)CC1,> 100
26,O=S1(=O)CCN(c2nccc(NCc3ccccc3)n2)CC1,> 100
27,c1ccc(CNc2ccnc(N3CCNCC3)n2)cc1,> 100
28,CC(=O)N1CCN(c2nccc(NCCc3ccccc3)n2)CC1,> 100
29,CC1CCN(c2nccc(NCc3cccc4ccccc34)n2)CC1,2.2
30,c1ccc2c(NCCCCCCCNc3c4c(nc5ccccc35)CCCC4)c3c(nc2c1)CCCC3,0.01
